{"source": "patent US11731962B2", "about": "“LpxC inhibitor and methods of making” (priority 2020, dated 2023)", "type_in_all_cases": "cell-based", "key": {"B. breve HM 412": {"system": "B. breve HM 412", "experiment": "Bacterial susceptibility testing, broth microdilution MIC", "settings": "Bifidobacterium breve, HM412, 35° C., 18-24 h", "procedure": "(§1) Minimal inhibitory concentrations (MIC) against a variety of gram-negative and gram-positive bacterial strains were determined by the broth microdilution method in accordance with the Clinical and Laboratory Standards Institute (CLSI) guidelines. In brief, organism suspensions were adjusted to a 0.5 McFarland standard to yield a final inoculum between 3×10^5 and 7×10^5 colony-forming units (CFU)/mL. Drug dilutions and inocula were made in sterile, cation adjusted Mueller-Hinton Broth (Beckton Dickinson). An inoculum volume of 100 μL was added to wells containing 100 μL of broth with 2-fold serial dilutions of drug. All inoculated microdilution trays were incubated in ambient air at 35° C. for 18-24 h. Following incubation, the lowest concentration of the drug that prevented visible growth (OD600 nm<0.05) was recorded as the MIC. Performance of the assay was monitored by the use of laboratory quality-control strains and levofloxacin, a compound with a defined MIC spectrum, in accordance with CLSI guidelines."}, "[1]": {"system": "B. thuringiensis ATCC 35646", "experiment": "Bacterial susceptibility testing, broth microdilution MIC", "settings": "Bacillus thuringiensis, ATCC35646, 35° C., 18-24 h", "procedure": "as §1"}, "C. difficile ATCC 700057": {"system": "C. difficile ATCC 700057", "experiment": "Bacterial susceptibility testing, broth microdilution MIC", "settings": "Clostridioides difficile, ATCC700057, 35° C., 18-24 h", "procedure": "as §1"}, "C. jeikeium NCTC 11914": {"system": "C. jeikeium NCTC 11914", "experiment": "Bacterial susceptibility testing, broth microdilution MIC", "settings": "Corynebacterium jeikeium, NCTC11914, 35° C., 18-24 h", "procedure": "as §1"}, "C. sordellii ATCC 9714": {"system": "C. sordellii ATCC 9714", "experiment": "Bacterial susceptibility testing, broth microdilution MIC", "settings": "Paraclostridium sordellii, ATCC9714, 35° C., 18-24 h", "procedure": "as §1"}, "E. coli ATCC 25922": {"system": "E. coli ATCC 25922", "experiment": "Bacterial susceptibility testing, broth microdilution MIC", "settings": "Escherichia coli, ATCC25922", "procedure": "as §1"}, "E. faecalis ATCC 29212": {"system": "E. faecalis ATCC 29212", "experiment": "Bacterial susceptibility testing, broth microdilution MIC", "settings": "Enterococcus faecalis, ATCC29212, 35° C., 18-24 h", "procedure": "as §1"}, "L. rhamnosus ATCC 53103": {"system": "L. rhamnosus ATCC 53103", "experiment": "Bacterial susceptibility testing, broth microdilution MIC", "settings": "Lacticaseibacillus rhamnosus, ATCC53103, 35° C., 18-24 h", "procedure": "as §1"}, "[2]": {"system": "N. cyriacigeorgica complex NBQAS 3295", "experiment": "Bacterial susceptibility testing, broth microdilution MIC", "procedure": "as §1"}, "P. acnes ATCC 6919": {"system": "P. acnes ATCC 6919", "experiment": "Bacterial susceptibility testing, broth microdilution MIC", "settings": "Cutibacterium acnes, ATCC6919, 35° C., 18-24 h", "procedure": "as §1"}, "P. anaerobius DSM 20357": {"system": "P. anaerobius DSM 20357", "experiment": "Bacterial susceptibility testing, broth microdilution MIC", "settings": "Peptostreptococcus anaerobius, DSM20357, 35° C., 18-24 h", "procedure": "as §1"}, "[3]": {"system": "S. epidermidis ATCC 35984", "experiment": "Bacterial susceptibility testing, broth microdilution MIC", "settings": "Staphylococcus epidermidis, ATCC35984, 35° C., 18-24 h", "procedure": "as §1"}, "S. pneumoniae ATCC 49619": {"system": "S. pneumoniae ATCC 49619", "experiment": "Bacterial susceptibility testing, broth microdilution MIC", "settings": "Streptococcus pneumoniae, ATCC49619, 35° C., 18-24 h", "procedure": "as §1"}, "S. pyogenes ATCC 12384": {"system": "S. pyogenes ATCC 12384", "experiment": "Bacterial susceptibility testing, broth microdilution MIC", "settings": "Streptococcus pyogenes, ATCC12384, 35° C., 18-24 h", "procedure": "as §1"}, "[4]": {"system": "gram-negative and gram-positive bacterial strains", "experiment": "Bacterial susceptibility testing, whole panel", "settings": "summary of Table 1", "procedure": "as §1"}, "[5]": {"system": "L. monocytogenes ATCC 7644", "experiment": "Bacterial susceptibility testing, broth microdilution MIC", "settings": "Listeria monocytogenes, ATCC7644, 35° C., 18-24 h", "procedure": "as §1"}, "S. aureus ATCC 29213": {"system": "S. aureus ATCC 29213", "experiment": "Bacterial susceptibility testing, broth microdilution MIC", "settings": "for MIC: Staphylococcus aureus, ATCC29213, S. aureus ATCC 29213, broth microdilution, 35° C., 18-24 h", "procedure": "as §1"}, "K. pneumoniae ATCC 13883": {"system": "K. pneumoniae ATCC 13883", "experiment": "Bacterial susceptibility testing, broth microdilution MIC", "settings": "Klebsiella pneumoniae, ATCC13883", "procedure": "as §1"}, "[6]": {"settings": "E. coli ATCC 25922, broth microdilution, 35° C., 18-24 h, read-out: MIC"}}, "note": "Where two headings read alike, the source gives them in different places."}
{"smiles": "C[C@@H](O)[C@H]1C(=O)N2C(C(=O)O)=C(S[C@@H]3CN[C@H](C(=O)N(C)C)C3)[C@H](C)[C@H]12", "note": "[Meropenem]", "values": [{"measurement": "MIC", "setting": "B. breve HM 412", "value": "> 1", "unit": "mg/L"}, {"measurement": "MIC", "setting": "[1]", "value": 0.06, "unit": "mg/L"}, {"measurement": "MIC", "setting": "C. difficile ATCC 700057", "value": 1, "unit": "mg/L"}, {"measurement": "MIC", "setting": "C. jeikeium NCTC 11914", "value": "> 1", "unit": "mg/L"}, {"measurement": "MIC", "setting": "C. sordellii ATCC 9714", "value": 0.015, "unit": "mg/L"}, {"measurement": "MIC", "setting": "E. coli ATCC 25922; [6]", "value": 0.03, "unit": "mg/L"}, {"measurement": "MIC", "setting": "E. faecalis ATCC 29212", "value": "> 1", "unit": "mg/L"}, {"measurement": "MIC", "setting": "L. rhamnosus ATCC 53103", "value": "> 1", "unit": "mg/L"}, {"measurement": "MIC", "setting": "[2]", "value": "> 1", "unit": "mg/L"}, {"measurement": "MIC", "setting": "P. acnes ATCC 6919", "value": 0.06, "unit": "mg/L"}, {"measurement": "MIC", "setting": "P. anaerobius DSM 20357", "value": "> 1", "unit": "mg/L"}, {"measurement": "MIC", "setting": "[3]", "value": "> 1", "unit": "mg/L"}, {"measurement": "MIC", "setting": "S. pneumoniae ATCC 49619", "value": 0.06, "unit": "mg/L"}, {"measurement": "MIC", "setting": "S. pyogenes ATCC 12384", "value": 0.008, "unit": "mg/L"}, {"measurement": "activity against gram-positive bacteria", "setting": "[4]", "value": "do have activity against various strains of gram-positive bacteria"}]}
{"smiles": "C[C@H]1COc2c(N3CCN(C)CC3)c(F)cc3c(=O)c(C(=O)O)cn1c23", "note": "[Levofloxacin]", "values": [{"measurement": "MIC", "setting": "B. breve HM 412", "value": 4, "unit": "mg/L"}, {"measurement": "MIC", "setting": "[1]", "value": 0.125, "unit": "mg/L"}, {"measurement": "MIC", "setting": "C. difficile ATCC 700057", "value": 4, "unit": "mg/L"}, {"measurement": "MIC", "setting": "C. jeikeium NCTC 11914", "value": 1, "unit": "mg/L"}, {"measurement": "MIC", "setting": "C. sordellii ATCC 9714", "value": 1, "unit": "mg/L"}, {"measurement": "MIC", "setting": "E. coli ATCC 25922; [6]", "value": 0.03, "unit": "mg/L"}, {"measurement": "MIC", "setting": "E. faecalis ATCC 29212", "value": 1, "unit": "mg/L"}, {"measurement": "MIC", "setting": "[5]", "value": 1, "unit": "mg/L"}, {"measurement": "MIC", "setting": "L. rhamnosus ATCC 53103", "value": 1, "unit": "mg/L"}, {"measurement": "MIC", "setting": "[2]", "value": 8, "unit": "mg/L"}, {"measurement": "MIC", "setting": "P. acnes ATCC 6919", "value": 0.5, "unit": "mg/L"}, {"measurement": "MIC", "setting": "P. anaerobius DSM 20357", "value": 0.5, "unit": "mg/L"}, {"measurement": "MIC", "setting": "S. aureus ATCC 29213", "value": 0.25, "unit": "mg/L"}, {"measurement": "MIC", "setting": "[3]", "value": 0.125, "unit": "mg/L"}, {"measurement": "MIC", "setting": "S. pneumoniae ATCC 49619", "value": 1, "unit": "mg/L"}, {"measurement": "MIC", "setting": "S. pyogenes ATCC 12384", "value": 0.5, "unit": "mg/L"}]}
{"smiles": "N#CC1CN(C[C@@H](Cc2ncnc(O)c2O)c2ccc(C#Cc3ccc(CN4CCOCC4)cc3)cc2)C1", "note": "[Compound A, (S)-1-(3-(5,6-dihydroxypyrimidin-4-yl)-2-(4-((4-(morpholinomethyl)phenyl)ethynyl)phenyl)propyl)azetidine-3-carbonitrile]", "values": [{"measurement": "MIC", "setting": "B. breve HM 412", "value": "> 64", "unit": "mg/L"}, {"measurement": "MIC", "setting": "[1]", "value": "> 64", "unit": "mg/L"}, {"measurement": "MIC", "setting": "C. difficile ATCC 700057", "value": "> 64", "unit": "mg/L"}, {"measurement": "MIC", "setting": "C. jeikeium NCTC 11914", "value": "> 64", "unit": "mg/L"}, {"measurement": "MIC", "setting": "C. sordellii ATCC 9714", "value": "> 64", "unit": "mg/L"}, {"measurement": "MIC", "setting": "E. coli ATCC 25922; [6]", "value": 0.5, "unit": "mg/L"}, {"measurement": "MIC", "setting": "E. coli ATCC 25922; E. coli cell lines, strain not named, read-out: MIC values", "value": "< 1", "unit": "mg/L"}, {"measurement": "MIC", "setting": "E. faecalis ATCC 29212", "value": "> 64", "unit": "mg/L"}, {"measurement": "MIC", "setting": "K. pneumoniae ATCC 13883; K. pneumoniae ATCC 13883, broth microdilution, 35° C., 18-24 h, read-out: MIC", "value": 0.5, "unit": "mg/L"}, {"measurement": "MIC", "setting": "K. pneumoniae ATCC 13883; K. pneumoniae cell lines, strain not named, read-out: MIC values", "value": "< 1", "unit": "mg/L"}, {"measurement": "MIC", "setting": "[5]", "value": "> 64", "unit": "mg/L"}, {"measurement": "MIC", "setting": "L. rhamnosus ATCC 53103", "value": "> 64", "unit": "mg/L"}, {"measurement": "MIC", "setting": "[2]", "value": "> 64", "unit": "mg/L"}, {"measurement": "MIC", "setting": "P. acnes ATCC 6919", "value": "> 64", "unit": "mg/L"}, {"measurement": "MIC", "setting": "P. anaerobius DSM 20357", "value": "> 64", "unit": "mg/L"}, {"measurement": "MIC", "setting": "S. aureus ATCC 29213", "value": "> 64", "unit": "mg/L"}, {"measurement": "inhibition of gram-positive bacterial cell lines", "setting": "S. aureus ATCC 29213; gram-positive bacterial cell lines, such as S. aureus", "value": "does not inhibit"}, {"measurement": "MIC", "setting": "[3]", "value": "> 64", "unit": "mg/L"}, {"measurement": "MIC", "setting": "S. pneumoniae ATCC 49619", "value": "> 64", "unit": "mg/L"}, {"measurement": "MIC", "setting": "S. pyogenes ATCC 12384", "value": "> 64", "unit": "mg/L"}, {"measurement": "selectivity for gram-negative bacteria over gram-positive bacteria", "setting": "[4]", "value": "high selectivity"}]}
